Source: patent publication US8563052B2, “Method for preparing gintonin, which is a novel glycolipoproetin from panax ginseng, and gintonin, which is a novel glycolipoprotein, prepared by the method” (Konkuk University Industrial Cooperation Corp., priority 2009, dated 2013)

Legend:
[1] = system: gintonin-induced CaCC currents; experiment: Effects of PLC inhibitor, IP3 receptor antagonist or Ca2+ chelator on crude gintonin-mediated CaCC activation in Xenopus oocytes; type: cell-based, Xenopus laevis; settings: for crude gintonin-induced CaCC currents, % of the control: in presence of the PLC inhibitor or inactive analog
Method: Two-electrode voltage-clamp recordings were obtained from individual oocytes placed in a small Plexiglas net chamber (0.5 ml). Electrophysiological experiments were performed at room temperature using microelectrodes filled with 3 M KCl (resistance of 0.2-0.7 MΩ) and an Oocyte Clamp amplifier (OC-725C; Warner Instrument, Hamden, Conn.), followed by recording CaCC at −80 mV holding potential.
For this, the effect of the IP3 receptor antagonist, membrane permeable 2-aminoethxydiphenyl borate (2-APB), on gintonin-induced CaCC activation was examined.

[2] = system: gintonin-mediated elevation of [Ca^2+]i in mouse EAT cells; experiment: Effects of active or inactive PLC inhibitors on gintonin-mediated [Ca2+]i elevation in mouse EAT cells; type: cell-based; settings: for effect on the action of gintonin on [Ca^2+]i: mouse EAT cells, irrespective of the presence of extracellular Ca^2+; for effect on gintonin (100 ng/mL)-mediated elevation of [Ca^2+]i: pretreatment 10 μM, Ca^2+ buffer (1.5 mM Ca^2+) and Ca^2+ free buffer (0.2 mM EGTA), n=4-5/group
Method: Data are represented as means ±SEM (n=4-5/group).
[Ca^2+]i was estimated in fura 2-loaded cells in suspension using an RF-5300PC intracellular ion measurement system (Shimadzu Corporation, Japan). The fura 2-AM loaded cells were diluted with an experimental medium to a final density of 2˜4×10^6 cells/mL and transferred to polystyrene cuvettes (Elkay Ultra-VU). The cells were stirred using Teflon-coated magnets, and the cuvette housing was thermostatically controlled at 37° C. The excitation wavelengths were alternated between 340 and 380 nm under computer control. Emission was detected at 510 nm. Excitation and emission slit widths were 5 nm. Background correction was performed as described by Jorgensen et al. Digitonin and EGTA were used as concentration adjustment reagents to make a condition in which fura 2 completely combines with and disassociates from Ca^2+.

Compound | inward CaCC currents induced by gintonin after addition of 2-APB ([1]; P<0.01 vs control current) [μA] | effect on gintonin-induced inward CaCC currents ([1]; addition of 2-APB) | effect on gintonin-mediated CaCC activation ([1]; 10 μM final) | crude gintonin-induced CaCC currents, % of the control [1] [%] | effect on the action of gintonin on [Ca^2+]i [2] | effect on gintonin (100 ng/mL)-mediated elevation of [Ca^2+]i [2]
NCCOB(c1ccccc1)c1ccccc1 [2-APB, 2-aminoethxydiphenyl borate] | 0.03±0.01 | almost completely abrogated |  |  |  | 
CC(=O)OCOC(=O)CN(CC(=O)OCOC(C)=O)c1ccccc1OCCOc1ccccc1N(CC(=O)OCOC(C)=O)CC(=O)OCOC(C)=O [BAPTA-AM, 1,2-bis-(2-aminophenoxy)ethane-N,N,N′,N′-tetraacetic acid acetoxymethyl ester] |  |  | almost extinguished |  |  | 
COc1ccc2c(c1)CC[C@@H]1[C@@H]2CC[C@]2(C)[C@@H](NCCCCCCN3C(=O)C=CC3=O)CC[C@@H]12 [U-73122] |  |  |  | 3.9±0.3 | almost abrogate | blocked
COc1ccc2c(c1)CC[C@@H]1[C@@H]2CC[C@]2(C)[C@@H](NCCCCCCN3C(=O)CCC3=O)CC[C@@H]12 [U-73343] |  |  |  | 97.2±0.2 | not | not
